In US20220227735A1, “THERAPEUTIC METHODS AND COMPOUNDS” (RUTGERS, THE STATE UNIVERSITY OF NEW JERSEY, priority 2019, published 2022):
Like-named read-outs stand apart in the source and are kept apart here.

Key:
[1] = biological target: T1, Plasmodium falciparum PKG (PfPKG) (Plasmodium falciparum, UniProt Q8I719); experiment: PfPKG IMAP fluorescence polarization kinase assay; format: biochemical
T1 construct: Full length PfPKG was cloned into the pTrcHisC vector for expression in BL21 (DE3) Star cells; His tag (pTrcHisC vector) (N); made in house; host or cells: E. coli BL21 (DE3) Star
T1 sequence (Q8I719 whole entry): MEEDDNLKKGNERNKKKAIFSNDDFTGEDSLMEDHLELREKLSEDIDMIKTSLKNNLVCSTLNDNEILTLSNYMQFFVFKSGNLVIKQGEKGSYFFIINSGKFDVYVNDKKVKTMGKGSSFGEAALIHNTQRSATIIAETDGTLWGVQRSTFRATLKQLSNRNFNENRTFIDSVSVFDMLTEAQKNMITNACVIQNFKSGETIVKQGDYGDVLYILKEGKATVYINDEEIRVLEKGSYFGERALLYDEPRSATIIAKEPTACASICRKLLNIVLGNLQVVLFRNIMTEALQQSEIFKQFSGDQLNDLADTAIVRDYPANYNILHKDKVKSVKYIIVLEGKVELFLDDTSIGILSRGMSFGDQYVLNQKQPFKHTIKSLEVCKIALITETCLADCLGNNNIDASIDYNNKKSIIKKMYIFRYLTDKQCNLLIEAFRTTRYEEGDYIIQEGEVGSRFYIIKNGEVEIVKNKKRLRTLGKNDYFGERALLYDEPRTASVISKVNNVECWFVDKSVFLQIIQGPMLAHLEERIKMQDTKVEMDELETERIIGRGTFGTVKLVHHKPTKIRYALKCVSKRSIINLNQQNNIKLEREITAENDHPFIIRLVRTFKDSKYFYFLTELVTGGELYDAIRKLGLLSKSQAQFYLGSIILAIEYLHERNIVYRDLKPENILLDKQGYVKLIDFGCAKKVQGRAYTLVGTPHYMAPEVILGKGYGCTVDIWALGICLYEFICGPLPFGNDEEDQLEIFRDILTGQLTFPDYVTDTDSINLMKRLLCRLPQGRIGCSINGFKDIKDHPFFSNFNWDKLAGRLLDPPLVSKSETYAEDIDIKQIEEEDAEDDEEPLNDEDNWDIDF
Method: Full length PfPKG was cloned into the pTrcHisC vector for expression in BL21 (DE3) Star cells. An LB culture containing 50 ug/ml carbenicillin (250 mL) was grown overnight at 37° C. The following day the culture was cooled on ice for about 10-15 minutes and divided equally into two new 125 mL cultures. 125 ml of fresh LB broth containing carbenicillin was added to each flask bringing the volume of each flask to 250 ml. Cultures were shaken at 18° C. before induction with IPTG (1.0 mM) for 18-24 h. The bacterial pellet was frozen at −80° C. until protein purification. Cells were lysed with Bacterial Protein Extraction Reagent (Thermo Scientific) on ice for 10-15 min. Supernatant was obtained after centrifugation of lysate at 21,000×g for 15 min at 4° C. Supernatant was incubated for 30 minutes at 4° C. with rotation with HisPur Cobalt Resin (Thermo Scientific), pre-washed with Wash Buffer (50 mM Hepes pH 7.8, 120 mM KCl, 20 mM NaCl, 10 mM Imidazole). Resin was added to a gravity column that was allowed to empty through gravity flow. The resin was washed with Wash buffer until no more protein is eluted off the column as determined by Bradford assay. A second wash was performed with Wash buffer containing 300 mM NaCl as in the previous wash step. Bound protein was eluted in 50 mM Hepes pH 7.8, 120 mM KCl, 20 mM NaCl, 250 mM Imidazole. Protein was dialyzed overnight in 50 mM Hepes pH 7.8, 120 mM KCl, 20 mM NaCl and 10% glycerol, with two buffer exchanges. Dialyzed protein was concentrated in a Corning Spin-X concentrator and assayed for activity using the IMAP FP Progressive Screening Expression kit (Molecular Devices, catalog #R8127) following the manufacturer's protocol.
(§1) Plasmodium falciparum PKG (PfPKG) and human PKG (hPKG) kinase activity was assayed using a commercial immobilized metal ion affinity-based fluorescence polarization (IMAP) assay according to the manufactures protocol (Molecular Devices). Briefly, kinase assays (20 μl in black half volume 96 well microtiter plates) contained; 10 mM Tris-HCl, pH 7.2, 10 mM MgCl2, 0.05% NaN3, 0.01% Tween® 20, 10 uM ATP, 1 uM cGMP and 21 ng of recombinant enzyme per well. Compounds were preincubated with enzyme at 25° C. for 15 minutes and reactions were initiated with addition of 120 nM fluorescent peptide substrates, FAM-PKAtide for PfPKG and FAM-IP3R for hPKG (Molecular Devices). Fluorescent polarization was measured using a Synergy 2 Microplate reader (BioTek, Winooski, Vt.). Fluorescent polarization was read in parallel and perpendicular with an excitation wavelength of 485 nm and an emission wavelength of 528 nm. IC50 data were analyzed using a four parameter logistic curve fit using Microsoft Excel Solver.

[2] = test system: human PKG (hPKG); experiment: Human PKG IMAP fluorescence polarization kinase assay; format: biochemical; conditions: compound at 10 μm; recombinant hPKG, 10 uM ATP, 1 uM cGMP, FAM-IP3R substrate
From the text: Human PKG, cloned into a pENTR221 vector, was obtained from DNASU.org. (HsCD00351766). It was cloned into a mammalian expression plasmid, Gateway pDEST27 (Invitrogen) for expression as a GST fusion protein, using LR Clonase II Plus enzyme (Invitrogen). The hPKG-pDEST27 plasmid was amplified in DH5a Max Efficiency Competent Cells and purified with a PureYield Plasmid Midiprep System (Promega) following the manufactures protocol. Expi293 cells were transfected with hPKG-pDEST27 using the Expifectamine 293 Transfection Kit (Gibco). After 18 hours, enhancing reagent (Gibco) was added. Cells were then collected 48 hours post-enhancing, centrifuged at 2000×g for 10 min, washed in ice cold PBS and frozen as a pellet at −80° C. until protein purification. The cell pellet was lysed with Mammalian Protein Extraction Reagent (Thermo Fisher) for 10-15 minutes. The lysate was centrifuged at 21,000×g for 15 minutes at 4° C. The supernatant was incubated for 1 h at 4° C. with glutathione resin that was pre-washed 10 times with ice cold Wash Buffer (50 mM Hepes pH 7.8, 120 mM KCl, 20 mM NaCl, 10% glycerol). The resin was loaded onto a column and washed with resin wash buffer by gravity flow until no more protein was detectable in the washes by Bradford assay. Protein was eluted with 10 mg/ml glutathione in Wash buffer. The protein was concentrated using a 30K MWCO Corning Spin X concentrator and assayed for activity as described above.
as §1

[3] = recombinant PfPKG, 10 uM ATP, 1 uM cGMP, FAM-PKAtide substrate, read-out: PfPKG (μm)

Row | Structure (SMILES) | IC50 [1, 3] [µM] | Human PKG (10 μm) [2] | IC50 [1] [µM]
1 | CCc1c(C2CCN(C)CC2)[nH]c(-c2ccc(F)cc2)c1-c1ccncc1 [Example 24, 4-(4-ethyl-2-(4-fluorophenyl)-5-(1-methylpiperidin-4-yl)-1H-pyrrol-3-yl)pyridine] | < 1 | 43 | 
2 | CN1CCc2c(ccc3c(-c4ccncc4)c(-c4ccc(F)cc4)[nH]c23)C1 [Example 11, 2-(4-fluorophenyl)-7-methyl-3-(pyridin-4-yl)-6,7,8,9-tetrahydro-1H-pyrrolo[2,3-f]isoquinoline] | < 1 | 35 | 
3 | CN1CCC(c2[nH]c(-c3ccc(F)cc3)c(-c3ccncc3)c2CS(C)(=O)=O)CC1 [Example 25, 4-(2-(4-fluorophenyl)-5-(1-methylpiperidin-4-yl)-4-((methylsulfonyl)methyl)-1H-pyrrol-3-yl)pyridine] | < 1 | 17 | 
4 | CN1CCC(c2cc(-c3ccncc3)c(-c3ccc(C(F)(F)F)cc3)[nH]2)CC1 [Example 33, 4-(5-(1-methylpiperidin-4-yl)-2-(4-(trifluoromethyl)phenyl)-1H-pyrrol-3-yl)pyridine] | < 1 | 9 | 
5 | C[C@@H]1CN(C)CC[C@@H]1c1cc(-c2ccncc2)c(-c2ccc(F)cc2)[nH]1 (single isomer, unassigned) [Example 31, 4-(5-(cis-1,3-dimethylpiperidin-4-yl)-2-(4-fluorophenyl)-1H-pyrrol-3-yl)pyridine] |  | 82 | < 1
6 | CN1C2CCC1CC(c1cc(-c3ccncc3)c(-c3ccc(F)cc3)[nH]1)C2 (centres unmarked) [Example 27, 3-(5-(4-fluorophenyl)-4-(pyridin-4-yl)-1H-pyrrol-2-yl)-8-methyl-8-azabicyclo[3.2.1]octane] |  | 32 | < 1

More lines, main results first:

Row | IC50 [1, 3] [µM] | Human PKG (10 μm) [2] | Structure (SMILES) | IC50 [1] [µM]
7 | < 1 | 16 | CN1CCC(c2cc(-c3ccnc(C#N)c3)c(-c3ccc(F)cc3)[nH]2)CC1 [Example 9, 4-(2-(4-fluorophenyl)-5-(1-methylpiperidin-4-yl)-1H-pyrrol-3-yl)picolinonitrile] | 
8 | < 1 | 34 | C=Cc1c(C2CCN(C)CC2)[nH]c(-c2ccc(F)cc2)c1-c1ccncc1 [Example 17, 4-(2-(4-fluorophenyl)-5-(1-methylpiperidin-4-yl)-4-vinyl-1H-pyrrol-3-yl)pyridine] | 
9 | < 1 | −2 | CN1CCC(c2cc(-c3ccncc3C(N)=O)c(-c3ccc(F)cc3)[nH]2)CC1 [Example 13, 4-(2-(4-fluorophenyl)-5-(1-methylpiperidin-4-yl)-1H-pyrrol-3-yl)nicotinamide] | 
10 | < 1 | −3 | CN(C)Cc1c(C2CCN(C)CC2)[nH]c(-c2ccc(F)cc2)c1-c1ccncc1 [Example 22, 1-(5-(4-fluorophenyl)-2-(1-methylpiperidin-4-yl)-4-(pyridin-4-yl)-1H-pyrrol-3-yl)-N,N-dimethylmethanamine] | 
